# In patent publication US11833160B2, “Ursodeoxycholic acid derivatives as HDAC inhibitors for the treatment of polycystic diseases” (UNIVERSIDAD DEL PAIS VASCO/EUSKAL HERRIKO UNIBERTSITATEA, priority 2017, dated 2023):
# Legend:
# human HDAC7 = target: T1, human HDAC7 (Homo sapiens, UniProt Q8WUI4); assay: HDAC7 enzymatic activity assay (fluorogenic peptide); type: biochemical; conditions: 10-dose, 3-fold serial dilution, triplicate
# T1 construct: amino acids 518 end with GST N-terminal tag, MW=78 kDa; GST (N); purchased BioMol, Hamburg, Germany; host or cells: baculovirus expression system
# T1 sequence (Q8WUI4 479-952 limits assumed): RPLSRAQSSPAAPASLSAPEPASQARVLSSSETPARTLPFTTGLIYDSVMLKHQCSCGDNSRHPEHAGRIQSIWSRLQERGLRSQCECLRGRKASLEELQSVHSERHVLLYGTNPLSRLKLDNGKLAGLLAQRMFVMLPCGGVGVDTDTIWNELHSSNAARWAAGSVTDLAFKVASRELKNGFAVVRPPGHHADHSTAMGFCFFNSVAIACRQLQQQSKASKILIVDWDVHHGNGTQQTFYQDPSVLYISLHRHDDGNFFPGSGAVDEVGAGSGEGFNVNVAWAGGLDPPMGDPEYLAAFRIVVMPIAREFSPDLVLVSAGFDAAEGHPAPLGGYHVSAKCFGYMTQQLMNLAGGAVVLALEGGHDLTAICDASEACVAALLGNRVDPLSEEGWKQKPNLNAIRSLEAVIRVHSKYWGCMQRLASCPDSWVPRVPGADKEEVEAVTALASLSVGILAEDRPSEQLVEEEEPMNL
# Method: (§1) Peptide substrates: all HDAC assays were performed using acetylated peptide substrates labeled with 7-amino-4-methylcoumarin (AMC): • Substrate for isoforms HDAC1, 2, 3, 6, 10, 11, and HeLa nuclear extract assays: acetylated fluorogenic peptide from p53 residues 379-382 (RHKKAc). • Substrate for isoforms HDAC4, 5, 7, 9: fluorogenic Boc-L-Lys (s-trifluoroacetyl)-AMC. • Substrate for HDAC8 assays: acetylated fluorogenic peptide from p53 residues 379-382 (RHKAcKAc).
# (§2) 50 μl of peptide substrate (see “peptide substrates” section above) and an optimal concentration of the corresponding enzyme (see “enzymes” section above) in the assay buffer at a final DMSO concentration of 1% were incubated in the presence of gradient concentrations of inhibitors (10-dose IC50 mode with 3-fold serial dilution) at 30° C. for 2 hours. The reactions were carried out in a 96-well microplate for fluorometry in a 50 μl reaction volume. After the deacetylation reaction, Fluor-de-Lys-Developer (BioMol Cat. #KI-105) was added to each well to digest the deacetylated substrate, thereby producing the fluorescent signal. The reaction was carried out for 45 minutes at 30° C. with 5% CO2; the fluorescent signal was then measured using an excitation wavelength of 360 nm and an emission wavelength of 460 nm in a microplate-reading fluorometer (GeminiXS, Molecular Devices, Sunnyvale, CA). A curve of deacetylated standard (Biomol, Cat. #KI-142; made from 100 μM with 1:2 dilution and 10 doses, 6 μl) allowed the conversion of the fluorescent signal into micromoles of deacetylated product. All experiments were performed in triplicate. The IC50s were calculated by fitting the experimental data to dose-response curve. DMSO was used as negative control; Trichostatin A (Biomol Cat. #GR-309) was used as positive control inhibitor.
# (§3) Enzymatic activity assays were carried out in 11 HDAC enzymes, including HDAC6.
# human HDAC2 = target: T2, human HDAC2 (Homo sapiens, UniProt Q92769); assay: HDAC2 enzymatic activity assay (fluorogenic peptide); type: biochemical; conditions: 10-dose, 3-fold serial dilution, triplicate
# T2 construct: His (C); purchased BioMol SE-500; host or cells: baculovirus / Sf9 cells
# Method: as §1, §2, §3
# [1] = system: polycystic human cholangiocytes; assay: Intracellular Ca^2+ measurement (Fluo-4 AM); type: cell-based
# Description: As described previously [Banales J M et al. Hepatology 2009; Perugorria M J et al. Nature Reviews G&H; Munoz-Garrido P et al. Journal of Hepatology 2015], polycystic (human and rat) cholangiocytes are characterized by a decrease in intracellular Ca^2+ levels, which promotes their proliferation. Furthermore, it has been proven that chronic treatment with UDCA is capable of partially inhibiting the proliferation of polycystic human cholangiocytes through the normalization of intracellular Ca^2+ levels in experimental models [Munoz-Garrido P et al. Journal of Hepatology 2015] and patients [D'Agnolo H M A, et al. Journal of Hepatology 2016] with PLD. […] To that end, the “Fluo-4 AM” (Thermo Fisher Scientific) intracellular Ca^2+ measurement method was used. A Ca^2+ ionophore (i.e., A23187, Sigma) was used as positive control.
# human HDAC11 = target: T3, human HDAC11 (Homo sapiens, UniProt Q96DB2); assay: HDAC11 enzymatic activity assay (fluorogenic peptide); type: biochemical; conditions: 10-dose, 3-fold serial dilution, triplicate
# T3 construct: GST (N); purchased BioMol SE-560; host or cells: baculovirus expression system
# T3 sequence (Q96DB2 1-347): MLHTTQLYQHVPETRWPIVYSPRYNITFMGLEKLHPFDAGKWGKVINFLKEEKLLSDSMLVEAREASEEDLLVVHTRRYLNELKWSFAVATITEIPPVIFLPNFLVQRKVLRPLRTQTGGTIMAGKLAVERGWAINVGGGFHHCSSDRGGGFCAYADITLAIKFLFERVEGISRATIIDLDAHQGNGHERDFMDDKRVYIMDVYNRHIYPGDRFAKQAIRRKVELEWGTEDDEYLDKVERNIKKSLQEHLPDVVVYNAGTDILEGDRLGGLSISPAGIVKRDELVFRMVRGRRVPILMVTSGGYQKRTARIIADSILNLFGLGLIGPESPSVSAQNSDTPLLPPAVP
# Method: as §1
# (§4) 50 μl of peptide substrate (see “peptide substrates” section above) and an optimal concentration of the corresponding enzyme (see “enzymes” section above) in the assay buffer at a final DMSO concentration of 1% were incubated in the presence of gradient concentrations of inhibitors (10-dose IC50 mode with 3-fold serial dilution) at 30° C. for 2 hours. The reactions were carried out in a 96-well microplate for fluorometry in a 50 μl reaction volume. After the deacetylation reaction, Fluor-de-Lys-Developer (BioMol Cat. #KI-105) was added to each well to digest the deacetylated substrate, thereby producing the fluorescent signal. The reaction was carried out for 45 minutes at 30° C. with 5% CO2; the fluorescent signal was then measured using an excitation wavelength of 360 nm and an emission wavelength of 460 nm in a microplate-reading fluorometer (GeminiXS, Molecular Devices, Sunnyvale, CA). […]
# human HDAC9 = human HDAC9 (Homo sapiens, UniProt Q9UKV0); assay: HDAC9 enzymatic activity assay (fluorogenic peptide); type: biochemical; conditions: 10-dose, 3-fold serial dilution, triplicate
# Method: as §1, §4
# human HDAC3/NcoR2 = target: T4, human HDAC3/NcoR2 (Homo sapiens, UniProt O15379); assay: HDAC3 enzymatic activity assay (fluorogenic peptide); type: biochemical; conditions: 10-dose, 3-fold serial dilution, triplicate
# T4 construct: human HDAC3 complex, full length with His C-terminal tag, MW=49.7 kDa; His (C); purchased BioMol SE-507; host or cells: baculovirus expression system
# Method: as §1, §4
# human HDAC1 = target: T5, human HDAC1 (Homo sapiens, UniProt Q13547); assay: HDAC1 enzymatic activity assay (fluorogenic peptide); type: biochemical; conditions: 10-dose, 3-fold serial dilution, triplicate
# T5 construct: GST (C); purchased BioMol SE-456; host or cells: baculovirus / Sf9 cells
# Method: as §1, §2, §3
# human HDAC8 = target: T6, human HDAC8 (Homo sapiens, UniProt Q9BY41); assay: HDAC8 enzymatic activity assay (fluorogenic peptide); type: biochemical; conditions: 10-dose, 3-fold serial dilution, triplicate
# T6 construct: purchased BioMol SE-145; host or cells: E. coli
# T6 sequence (Q9BY41 1-377): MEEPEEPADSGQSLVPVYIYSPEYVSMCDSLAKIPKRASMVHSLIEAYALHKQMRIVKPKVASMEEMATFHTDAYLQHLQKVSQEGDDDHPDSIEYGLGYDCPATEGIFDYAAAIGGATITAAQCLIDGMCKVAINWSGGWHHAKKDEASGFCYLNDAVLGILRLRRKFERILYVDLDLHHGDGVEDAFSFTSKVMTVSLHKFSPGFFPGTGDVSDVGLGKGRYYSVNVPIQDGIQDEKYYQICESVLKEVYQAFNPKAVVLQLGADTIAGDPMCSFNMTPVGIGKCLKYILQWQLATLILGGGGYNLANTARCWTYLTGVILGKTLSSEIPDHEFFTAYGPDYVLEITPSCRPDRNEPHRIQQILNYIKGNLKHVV
# Method: as §1, §2, §3
# T5 sequence (Q13547 whole entry): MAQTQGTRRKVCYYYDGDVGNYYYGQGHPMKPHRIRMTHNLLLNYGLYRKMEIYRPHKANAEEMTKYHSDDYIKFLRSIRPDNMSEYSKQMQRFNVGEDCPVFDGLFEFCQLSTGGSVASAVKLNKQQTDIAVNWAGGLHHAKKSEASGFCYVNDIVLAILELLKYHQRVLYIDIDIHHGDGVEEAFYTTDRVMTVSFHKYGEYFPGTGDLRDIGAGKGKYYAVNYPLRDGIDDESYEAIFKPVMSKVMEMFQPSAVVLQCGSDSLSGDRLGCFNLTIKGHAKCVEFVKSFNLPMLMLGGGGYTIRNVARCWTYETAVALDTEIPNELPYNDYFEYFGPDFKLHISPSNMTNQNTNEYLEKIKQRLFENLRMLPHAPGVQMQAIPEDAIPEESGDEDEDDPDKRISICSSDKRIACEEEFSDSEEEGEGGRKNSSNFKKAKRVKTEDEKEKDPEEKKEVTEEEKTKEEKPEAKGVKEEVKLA
# T2 sequence (Q92769 whole entry): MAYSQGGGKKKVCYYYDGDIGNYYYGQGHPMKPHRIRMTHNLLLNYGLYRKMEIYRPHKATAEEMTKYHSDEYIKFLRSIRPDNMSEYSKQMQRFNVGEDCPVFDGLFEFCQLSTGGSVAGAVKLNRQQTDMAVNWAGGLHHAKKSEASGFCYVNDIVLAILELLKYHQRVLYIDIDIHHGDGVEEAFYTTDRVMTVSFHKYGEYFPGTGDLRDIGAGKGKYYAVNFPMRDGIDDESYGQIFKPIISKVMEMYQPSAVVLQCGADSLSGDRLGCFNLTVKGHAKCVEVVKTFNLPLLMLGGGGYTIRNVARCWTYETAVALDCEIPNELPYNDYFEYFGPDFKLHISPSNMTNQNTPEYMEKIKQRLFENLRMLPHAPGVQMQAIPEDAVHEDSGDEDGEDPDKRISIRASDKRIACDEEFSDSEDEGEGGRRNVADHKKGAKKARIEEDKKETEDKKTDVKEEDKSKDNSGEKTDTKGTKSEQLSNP
# T4 sequence (O15379 whole entry): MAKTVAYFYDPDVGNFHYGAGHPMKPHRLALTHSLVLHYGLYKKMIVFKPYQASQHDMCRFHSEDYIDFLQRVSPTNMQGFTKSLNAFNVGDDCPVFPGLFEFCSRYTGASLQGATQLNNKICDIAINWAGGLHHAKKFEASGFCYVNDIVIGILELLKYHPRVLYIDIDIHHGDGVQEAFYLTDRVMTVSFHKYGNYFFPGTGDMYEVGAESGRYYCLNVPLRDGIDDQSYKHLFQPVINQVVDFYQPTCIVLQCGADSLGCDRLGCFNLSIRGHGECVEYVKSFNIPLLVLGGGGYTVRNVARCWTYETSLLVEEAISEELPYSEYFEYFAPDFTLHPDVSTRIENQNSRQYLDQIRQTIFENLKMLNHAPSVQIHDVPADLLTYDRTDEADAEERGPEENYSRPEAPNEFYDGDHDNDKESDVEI
# T4 sequence (Q9Y618 395-489 partner limits assumed): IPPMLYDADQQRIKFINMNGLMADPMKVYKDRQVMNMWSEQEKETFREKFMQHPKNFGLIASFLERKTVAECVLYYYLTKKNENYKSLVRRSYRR
# human HDAC9, sequence (Q9UKV0 604-1066 isoform Q9UKV0-5): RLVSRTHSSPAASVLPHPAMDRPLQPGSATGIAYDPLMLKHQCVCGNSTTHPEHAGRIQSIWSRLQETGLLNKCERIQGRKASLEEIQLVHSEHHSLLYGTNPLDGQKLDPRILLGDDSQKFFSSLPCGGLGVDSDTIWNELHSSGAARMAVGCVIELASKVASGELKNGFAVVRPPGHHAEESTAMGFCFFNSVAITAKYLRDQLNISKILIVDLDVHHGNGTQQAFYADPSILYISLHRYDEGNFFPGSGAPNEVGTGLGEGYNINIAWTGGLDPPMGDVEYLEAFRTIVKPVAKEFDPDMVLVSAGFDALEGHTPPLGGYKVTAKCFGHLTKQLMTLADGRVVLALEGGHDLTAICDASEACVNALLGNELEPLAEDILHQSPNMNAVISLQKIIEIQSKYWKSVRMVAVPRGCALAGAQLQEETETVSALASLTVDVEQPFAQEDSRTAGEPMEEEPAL
Compound,IC50 (human HDAC7) [µM],IC50 (human HDAC2) [µM],intracellular Ca^2+ levels [1],IC50 (human HDAC11) [µM],IC50 (human HDAC9) [µM],IC50 (human HDAC3/NcoR2) [µM],IC50 (human HDAC1) [µM],IC50 (human HDAC8) [µM]
"C[C@H](CCC(=O)NCC(=O)NCc1ccc(C(=O)NO)cc1)[C@H]1CC[C@H]2[C@@H]3[C@@H](O)C[C@@H]4C[C@H](O)CC[C@]4(C)[C@H]3CC[C@]12C [Ib, 4-((2-((R)-4 ((3R,5S,7S,8R,9S,10S,13R,14S,17R)-3,7-dihydroxy-10,13-dimethylhexadecahydro-1H-cyclopenta[a]phenanthren-17-yl)pentanamide)acetamido)methyl)-N-hydroxybenzamide]",17.6,13.2,increasing intracellular Ca^2+ levels,2.56,11.6,9.99,9.01,0.615
C[C@H](CCC(=O)NCc1ccc(C(=O)NO)cc1)[C@H]1CC[C@H]2[C@@H]3[C@@H](O)C[C@@H]4C[C@H](O)CC[C@]4(C)[C@H]3CC[C@]12C [Compound Ia],7.47,18.8,increasing intracellular Ca^2+ levels,2.33,13.4,8.37,10.1,0.894
